According to patent US7214669B2, “Tetracycline derivatives and methods of use thereof” (Tetragenex Pharmaceuticals, Inc., priority 2001, dated 2007):
Values joined by “and” are separate entries in the source; they are usually repeats but may differ in a detail not shown here. Equal entries are not always repeated. Structures can show the parent of a compound that is named as a salt.

How the values were obtained:
Human recombinant MMP14 = Human recombinant MMP14 (Homo sapiens, UniProt P50281); assay: MMP14 (MTI-MMP) inhibition, 14C collagen release; assay type: biochemical; conditions: 35° C., 15 hours; read-out: MMP-14 inhibitory activity, IC50
MMP2 (Gelatinase A) = target: T1, MMP2 (Gelatinase A) (Homo sapiens, UniProt P08253); assay: MMP2 (Gelatinase A) inhibition, 14C gelatin release; assay type: biochemical; conditions: 37° C., 16 hours; read-out: MMP-2 inhibitory activity, IC50
T1 sequence (P08253 110-660): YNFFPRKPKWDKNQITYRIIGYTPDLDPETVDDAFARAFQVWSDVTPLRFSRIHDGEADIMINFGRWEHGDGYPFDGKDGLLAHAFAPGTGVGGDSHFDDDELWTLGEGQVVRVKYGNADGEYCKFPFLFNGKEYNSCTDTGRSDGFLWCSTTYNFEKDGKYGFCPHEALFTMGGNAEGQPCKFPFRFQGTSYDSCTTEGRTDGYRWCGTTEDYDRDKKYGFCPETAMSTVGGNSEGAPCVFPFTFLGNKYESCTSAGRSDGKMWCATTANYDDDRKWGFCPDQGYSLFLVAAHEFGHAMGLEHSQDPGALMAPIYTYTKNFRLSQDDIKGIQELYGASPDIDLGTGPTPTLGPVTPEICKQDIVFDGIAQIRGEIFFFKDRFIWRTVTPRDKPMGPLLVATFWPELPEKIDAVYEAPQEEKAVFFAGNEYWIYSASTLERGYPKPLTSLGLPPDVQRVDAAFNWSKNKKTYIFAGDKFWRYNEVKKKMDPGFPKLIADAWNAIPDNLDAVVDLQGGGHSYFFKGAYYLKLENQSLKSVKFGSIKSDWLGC

Human recombinant MMP1 = target: T2, Human recombinant MMP1 (Homo sapiens, UniProt P03956); assay: MMP1 (Collagenase-1) inhibition, 14C collagen release; assay type: biochemical; conditions: 35° C., 5 hours; read-out: MMP-1 inhibitory activity, IC50
T2 sequence (P03956 100-469): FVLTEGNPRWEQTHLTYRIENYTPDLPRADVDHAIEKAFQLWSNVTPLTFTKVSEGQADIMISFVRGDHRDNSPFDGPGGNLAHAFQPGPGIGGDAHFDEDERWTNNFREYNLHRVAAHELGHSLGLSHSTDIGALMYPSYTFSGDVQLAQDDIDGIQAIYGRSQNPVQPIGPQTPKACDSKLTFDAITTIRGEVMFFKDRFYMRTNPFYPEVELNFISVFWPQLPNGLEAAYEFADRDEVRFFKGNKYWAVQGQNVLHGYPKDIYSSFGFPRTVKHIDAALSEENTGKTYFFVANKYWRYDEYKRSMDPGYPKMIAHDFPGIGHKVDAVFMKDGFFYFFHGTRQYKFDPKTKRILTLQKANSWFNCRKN

Human recombinant MMP3 = Human recombinant MMP3 (Homo sapiens, UniProt P08254); assay: MMP3 (Stromelysin 1) inhibition, 14C casein release; assay type: biochemical; conditions: 37° C., 16 hours; read-out: MMP-3 inhibitory activity, IC50
Human recombinant MMP9 = Human recombinant MMP9 (Homo sapiens, UniProt P14780); assay: MMP9 (Gelatinase B) inhibition, 14C gelatin release; assay type: biochemical; conditions: 37° C., 16 hours; read-out: MMP-9 inhibitory activity, IC50
[1] = system: PC-3 ML human prostate cancer cells; assay: Membrane Invasion Culture System (MICS) chemo-invasion assay; assay type: cell-based; conditions: 24 hours, + = increased invasiveness
Description: (§1) Another objective was to analyze the effects of specific, tetracycline derived compounds on the in-vitro chemo-invasive potential of: • C8161 human melanoma cells • MDA-MB-231 human breast cancer cells • PC3 human prostate cancer cells • RPM18226 human myeloma cancer cells • Ark human myeloma cancer cells • Arp-1 human myeloma cancer cells
(§2) The Membrane Invasion Culture System (MICS) in vitro chemo-invasion assay was chosen to measure changes in the invasive potential of specific human cancer cells in response to tetracycline derived compounds. Stock solutions of each compound were hydrated in water containing 2% DMSO and pH 10.0. Upon solubilization, HCl was added to the solution to establish a pH of 7.5–8.0. This solution was then wrapped in foil and kept at 4° C. during the 24 hours of assay. Fresh compound was prepared for each assay. The in vitro chemoinvasion analyses for tumor cell invasiveness are performed using the Membrane Invasion Culture System (MICS) as previously described.
(§3) The MICS system is a thermally treated plastic manifold system consisting of two matched sets of plates containing fourteen wells, 13 mm in diameter. Interposed between these plates was a polycarbonate filter containing 10 μm pores and coated with a defined matrix composed of human laminin/collagen IV/gelatin that formed a 35 μm thick barrier between the top and bottom sections of the wells in MICS. Prior to placing this barrier in place, the lower wells were filled with serum-free RPMI culture medium made 50% in conditioned medium obtained from 2-day-old cultures of human fibroblasts which had been cleared of cells and cellular debris by either centrifugation, or filtering through a 0.45 μm sterile filter. The barrier was then placed on the lower wells and fresh serum-free medium added to the upper wells after assembly of the system. Fifty thousand tumor cells were then added to the wells either in the presence of the compound, or the DMSO vehicle (the controls). Of the 12 assay wells on each manifold, 3 randomized wells acted as controls, 3 wells received 1 μg/ml of compound, 3 received 10 μg/ml and 3 received 25 μg/ml. After 24 hours, cells and media were removed from the lower wells and replaced by phosphate buffered saline plus 2 mM EDTA. This solution was used to remove all cells from the lower well, and this wash was added to the recovered cells plus medium from the same well. These samples were then collected onto a polylysine containing polycarbonate membrane containing 3 μm pores using a Dot-Blot manifold system. These collection filters were then fixed in methanol, and stained using Wright's stain (Leukostat staining kit) in situ. The filters were then mounted on microscope slides with microscope immersion oil (which reduced the light refraction from the pores) and 5 microscopic fields were counted to calculate the number of cells which invaded through the membrane over the 24 hour period. These numbers were then statistically analyzed as discussed below.

[2] = system: MDA-MB-231 human breast cancer cells; assay: as above; assay type: cell-based; conditions: 24 hours, + = increased invasiveness
Description: as §1, §2, §3

[3] = system: RPMI-8226 human myeloma cancer cells; assay: as above; assay type: cell-based; conditions: 24 hours, + = increased invasiveness
Description: as §1, §2, §3

[4] = system: C8161 human melanoma cells; assay: as above; assay type: cell-based; conditions: 24 hours, + = increased invasiveness
Description: as §1, §2, §3

Sequence of Human recombinant MMP3 (P08254 100-477): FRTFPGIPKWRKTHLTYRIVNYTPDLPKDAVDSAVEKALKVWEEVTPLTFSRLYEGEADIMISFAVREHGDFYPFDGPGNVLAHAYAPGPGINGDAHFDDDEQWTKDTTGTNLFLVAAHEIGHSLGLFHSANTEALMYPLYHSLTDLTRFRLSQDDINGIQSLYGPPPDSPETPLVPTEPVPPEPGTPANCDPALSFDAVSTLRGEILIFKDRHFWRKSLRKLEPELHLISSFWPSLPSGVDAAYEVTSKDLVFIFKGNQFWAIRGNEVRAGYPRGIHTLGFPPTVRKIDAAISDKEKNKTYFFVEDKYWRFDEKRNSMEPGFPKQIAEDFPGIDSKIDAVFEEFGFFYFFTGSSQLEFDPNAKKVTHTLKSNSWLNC
Sequence of Human recombinant MMP9 (P14780 94-707): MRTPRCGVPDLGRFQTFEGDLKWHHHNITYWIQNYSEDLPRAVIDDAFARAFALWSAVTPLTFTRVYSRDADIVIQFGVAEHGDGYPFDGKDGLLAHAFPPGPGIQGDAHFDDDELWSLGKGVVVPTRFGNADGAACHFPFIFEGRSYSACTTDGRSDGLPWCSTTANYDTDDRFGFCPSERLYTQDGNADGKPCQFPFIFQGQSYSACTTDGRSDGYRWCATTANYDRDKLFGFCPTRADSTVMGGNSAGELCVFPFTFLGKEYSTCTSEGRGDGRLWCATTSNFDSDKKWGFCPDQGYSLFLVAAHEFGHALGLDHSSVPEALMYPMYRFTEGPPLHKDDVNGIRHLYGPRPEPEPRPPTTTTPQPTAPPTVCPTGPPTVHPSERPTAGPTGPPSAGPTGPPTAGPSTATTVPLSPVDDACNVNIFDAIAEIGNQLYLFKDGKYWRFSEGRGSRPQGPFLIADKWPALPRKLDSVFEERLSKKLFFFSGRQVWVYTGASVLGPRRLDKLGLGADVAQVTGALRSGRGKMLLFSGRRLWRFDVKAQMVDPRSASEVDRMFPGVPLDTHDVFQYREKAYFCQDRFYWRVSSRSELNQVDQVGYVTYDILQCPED

Compound | IC50 (Human recombinant MMP14) | IC50 (MMP2 (Gelatinase A)) | IC50 (Human recombinant MMP1) | IC50 (Human recombinant MMP3) | IC50 (Human recombinant MMP9) | percent inhibition, PC-3 ML (Prostrate) ([1]; 1 ug/mL) | percent inhibition, PC-3 ML (Prostrate) ([1]; 10 ug/mL) | percent inhibition, PC-3 ML (Prostrate) ([1]; 25 ug/mL) | percent inhibition, MDA-MB-231 (Breast) ([2]; 25 ug/mL) | percent inhibition, RPMI-8226 (Multiple Myeloma) ([3]; 1 ug/mL) | percent inhibition, RPMI-8226 (Multiple Myeloma) ([3]; 10 ug/mL) | percent inhibition, RPMI-8226 (Multiple Myeloma) ([3]; 25 ug/mL) | percent inhibition, C8161 (Melanoma) ([4]; 1 ug/mL) | percent inhibition, C8161 (Melanoma) ([4]; 10 ug/mL) | percent inhibition, C8161 (Melanoma) ([4]; 25 ug/mL) | percent inhibition, MDA-MB-231 (Breast) ([2]; 1 ug/mL) | percent inhibition, MDA-MB-231 (Breast) ([2]; 10 ug/mL)
CC(=O)Nc1cc(N)c(O)c2c1C(C)C1C(=C(O)C3(O)C(=O)C(C(N)=O)=C(O)C(N(C)C)C3C1O)C2=O (stereo not shown) [Compound 26, 7-Acetamido-9-amino-6-deoxy-5-hydroxytetracycline H2SO4] | 586 µM | 413 µM | > 1000 µM | > 1000 µM | 384 µM | – | – | – | – | – | – | – | – | – | – | – | –
CC(C)CN(C)c1ccc(O)c2c1C(C)C1C(=C(O)C3(O)C(=O)C(C(N)=O)=C(O)C(N(C)C)C3C1O)C2=O (stereo not shown) [Compound 27, 7-Isobutylmethylamino-6-deoxy-5-hydroxytetracycline H2SO4] | 92 µM | 963 µM | 498 µM | 149 µM | 101 µM | 17^B percent and 9% | 35^B percent and 56^B percent | 70% | 72^B percent and 48^B percent | 24^B percent and 20% | 6% and 9% | – | – | – | – | – | –
CC(=O)OC1C2C(=C(O)C3(O)C(=O)C(C(N)=O)=C(O)C(N(C)C)C13)C(=O)c1c(O)cccc1C2C (stereo not shown) [Compound 28, 6-Deoxy-5-acetoxy-tetracycline H2SO4] | 49 µM | > 1000 µM | > 1000 µM | 231 µM | 125 µM | – | – | 80% and 61% | 54^B percent and 45^B percent | 4% and 5% | – | 34^B percent and 62^B percent | – | – | – | – | –
CC(=O)N(CC(C)C)c1ccc(O)c2c1C(C)C1C(=C(O)C3(O)C(=O)C(C(N)=O)=C(O)C(N(C)C)C3C1O)C2=O.O=S(=O)(O)O (stereo not shown) [Compound 29, 7-Acetylisobutylamino-6-deoxy-5-hydroxytetracycline H2SO4] | 98 µM | 983 µM | 895 µM | 213 µM | 172 µM | – | – | 58% and 69% | – | – | 12% and 13% | – | – | – | – | – | –
CC(=O)Nc1cc([N+]#N)c(O)c2c1C(C)C1C(=C(O)C3(O)C(=O)C(C(N)=O)=C(O)C(N(C)C)C3C1O)C2=O (stereo not shown) [Compound 30, 7-Acetamido-6-deoxy-5-hydroxytetracycline-9-diazonium H2SO4] | > 1000 µM | > 1000 µM | 576 µM | 938 µM | > 1000 µM | – | – | – | – | – | – | – | – | – | – | – | –
C[C@H]1c2c(N(C)C)cc([N+]#N)c(O)c2C(=O)C2=C(O)[C@]3(O)C(=O)C(C(N)=O)=C(O)[C@@H](N(C)C)[C@@H]3[C@@H](O)[C@@H]21 [Compound 31, 7-Dimethylamino-6-deoxy-5-hydroxytetracycline-9-diazonium H2SO4] | 593 µM | 258 µM | 621 µM | > 1000 µM | 311 µM | – | – | – | – | – | – | – | – | – | – | – | –
CC1c2c(NC3CCC3)ccc(O)c2C(=O)C2=C(O)C3(O)C(=O)C(C(N)=O)=C(O)C(N(C)C)C3C(O)C21 (stereo not shown) [Compound 32, 7-Cyclobutylamino-6-deoxy-5-hydroxytetracycline H2SO4] | 197 µM | 236 µM | 601 µM | 244 µM | 214 µM | – | – | – | – | – | – | – | – | – | – | – | –
CC1c2cccc(O)c2C(=O)C2=C(O)C3(O)C(=O)C(C(N)=O)=C(O)CC3C(O)C21 (stereo not shown) [Compound 34, 4-Dedimethylamino-6-deoxy-5-hydroxytetracycline] | 197 µM | 242 µM | 242 µM | 136 µM | 308 µM | – | – | – | – | – | – | – | – | – | – | – | –
CC1c2ccc([N+](=O)[O-])c(O)c2C(=O)C2=C(O)C3(O)C(=O)C(C(N)=O)=C(O)CC3C(O)C21 (stereo not shown) [Compound 35, 4-Dedimethylamino-6-deoxy-5-hydroxy-9-nitrotetracycline] | 108 µM | 249 µM | 947 µM | 218 µM | 397 µM | – | – | – | – | – | – | – | – | – | – | – | –
CC1c2ccc(N)c(O)c2C(=O)C2=C(O)C3(O)C(=O)C(C(N)=O)=C(O)CC3C(O)C21 (stereo not shown) [Compound 36, 9-animo-4-dedimethylamino-6-deoxy-5-hydroxytetracycline sulfate] | 608 µM | > 1000 µM | 539 µM | 283 µM | > 1000 µM | – | – | – | – | – | – | – | – | – | – | – | –
CC1c2ccc([N+]#N)c(O)c2C(=O)C2=C(O)C3(O)C(=O)C(C(N)=O)=C(O)CC3C(O)C21.O=S(=O)([O-])O (stereo not shown) [Compound 37, 4-Dedimethylamino-6-deoxy-5-hydroxytetracycline-9-diazonium sulfate] | 41 µM | > 1000 µM | 279 µM | 274 µM | 445 µM | 11% | 26% | 36% | 46^B percent | 10% | 5% | 46^B percent | +1% | 20% | 69^B percent | +6% | 1%
CC1c2c([N+](=O)[O-])cc(C(C)(C)C)c(O)c2C(=O)C2=C(O)C3(O)C(=O)C(C(N)=O)=C(O)C(N(C)C)C3C(O)C21 (stereo not shown) [Compound 38, 7-nitro-9-tertbutyl-6-deoxy-5-hydroxytetracycline H2SO4] | 69 µM | 175 µM | 230 µM | 95 µM | 215 µM | 37^B percent and 38^B percent | 41^B percent and 27^B percent | 41% and 52% | 70^B percent and 37% | – | – | – | – | – | 66^B percent and 39% | – | –
C[C@H]1c2c(N)ccc(O)c2C(=O)C2=C(O)[C@]3(O)C(=O)C(C(N)=O)=C(O)C[C@@H]3[C@@H](O)[C@@H]21 [Compound 48, 4-Dedimethylamino-7-amino-6-deoxy-5-hydroxyltetracycline H2SO4] | 354 µM | 1930 µM | 12800 µM | 506 µM | 424 µM | – | – | – | – | – | – | – | – | – | – | – | –
